Assay results as given in patent US20040253665A1, “Novel peptide-producing enzyme, microbe producing the enzyme and method for dipeptide synthesis using them” (AJINOMOTO CO., INC., priority 2002, published 2004).
Like-named read-outs stand apart in the source and are kept apart here. Blank lines part the entries; values can stand above or below the compound they belong to. Non-standard residues stand in square brackets, D forms with d. Residues, ends and D or L forms follow the SMILES beside them.

Columns and labels:
[1] = tested on: peptide-producing enzyme (Mono S fraction) from Empedobacter brevis strain FERM BP-8113; assay: Enzyme substrate specificity (1)-(10), (13), (14); assay type: biochemical; details: pH 9.0, 25° C., 3 hours
From the text: Ester specificity was examined in the case of using L-amino acid ester for the carboxy component. […] The amounts of L-Ala-L-Gln produced in this reaction are shown in Table 4 (HCl represents hydrochloride in Table 4). Peptide production was examined in the case of using L-alanine methyl ester for the carboxy component and using various L-amino acids for the amine component. […] (The “+” mark indicates those peptides for which production was confirmed but which were unable to be quantified due to the absence of a standard, while “tr” indicates a trace amount.) Peptide production was examined in the case of using various types of L-amino acid methyl esters for the carboxy component and using L-glutamine for the amine component. […] Peptide production was examined in the case of using various L-amino acid methyl esters for the carboxy component and various L-amino acids for the amine component. […] (The “tr” indicates a trace amount.) Furthermore, Tween-80 was added to the reaction system to a final concentration of 0.1% in the case of using L-Trp-OMe. (The “+” mark indicates those peptides for which production was confirmed but which were unable to be quantified due to the absence of a standard.) […] (The “tr” indicates a trace amount.) Peptide production was examined using various L-amino acid amides for the carboxy component, and various L-amino acids for the amine component. […] Peptide production was examined in the case of using various L-alanine methyl esters for the carboxy component and C-protected L-amino acids for the amine component. […] Peptide production was examined in the case of using various amino acid methyl esters for the carboxy component and methylamine for the amine component. […] Peptide production was examined in the case of using β-amino acid ester for the carboxy component or β-amino acid for the amine component. […] (The “tr” indicates a trace amount.) Oligopeptide production was examined in the case of using L-amino acid ester for the carboxy component and peptide for the amine component. […] Substrate specificity was additionally assessed using the same enzyme fraction as that used in Example 5. […] (A “+” mark indicates those for which production was confirmed but which were unable to be quantified due to the absence of a standard, while “tr” indicates a trace amount). Substrate specificity with respect to oligopeptide production was assessed using the same enzyme fraction as Example 26. […] (A “+” mark indicates those for which production was confirmed but which were unable to be quantified due to the absence of a standard, while “tr” indicates a trace amount). It should be noted that hydrochlorides were used for all of the carboxy components.

[2] = tested on: enzyme (SP-Sepharose HP fraction) derived from Sphingobacterium sp. strain FERM BP-8124; assay type: biochemical; details: 0.33 units enzyme, pH 9.0, 25° C., 1.5 hours
Experimental: Substrate specificity was examined for enzyme derived from Sphingobacterium sp. strain FERM BP-8124 (Depositary institution: National Institute for Advanced Industrial Science and Technology, International Patent Organism Depositary, Address of depositary institution: Central. 6, 1-1-1 Higashi, Tsukuba City, Ibaraki Prefecture, Japan, International deposit date: Jul. 22, 2002). 100 μl of 100 mM borate buffer (pH 9.0) containing the various carboxy components at a final concentration of 100 mM and the various amine components at a final concentration of 150 mM shown in Tables 15-1 to 15-4, the SP-Sepharose HP fraction enzyme purified in Example 22 (addition of 0.33 units in the reaction liquid) and 10 mM EDTA were allowed to react at 25° C. for 1.5 hours. […] In addition, hydrochlorides were used for all carboxy components.
Substrate specificity with respect to oligopeptide production was examined for enzyme derived from Sphingobacterium sp. strain FERM BP-8124 (Depositary institution: National Institute for Advanced Industrial Science and Technology,.International Patent Organism Depositary, Address of depositary institution: Chuo Dai-6, 1-1 Higashi 1-Chome, Tsukuba-shi, Ibaraki-ken, Japan, International deposit date: Jul. 22, 2002). A 100 μl aliquot of 100 mM borate buffer (pH 9.0) containing the various carboxy components at a final concentration of 100 mM and the various amine components at a final concentration of 150 mM shown in Table 16, the SP-Sepharose HP fraction enzyme purified in Example 22 (addition of 0.33 units in the reaction liquid) and 10 mM EDTA were allowed to react for 1.5 hours at 25° C. Furthermore, hydrochloride salts were used for all carboxy components.

[3] = L or D amino acid methyl ester hydrochloride 100 mM, L or D amino acid 150 mM
[4] = Table 15-1, carboxy component 100 mM, amine component 150 mM
[5] = L-amino acid methyl ester hydrochloride 100 mM, L-amino acid 150 mM
[6] = Table 15-3, carboxy component 100 mM, amine component 150 mM
[7] = Table 15-4, amides or methylamine as components, 100 mM / 150 mM
[8] = L-Ala-OMe 100 mM, L-amino acid amide 150 mM as amine component
[9] = 100 mM L-alanine methyl ester hydrochloride, L-amino acid 150 mM

Produced peptide [1, 3]: 0.2 mM | Produced peptide [2, 4]: 5.5 mM
SMILES: C[C@@H](N)C(=O)N[C@H](CO)C(=O)O [D-Ala-D-Ser] (H-[dA]-[dS]-OH)

Produced peptide [1, 3]: 20.3 mM | Produced peptide [2, 4]: 24.1 mM
SMILES: C[C@@H](N)C(=O)N[C@@H](CO)C(=O)O [D-Ala-L-Ser] (H-[dA]-Ser-OH)

Produced peptide ([1]; L-amino acid methyl ester hydrochloride 100 mM, 150 mM L-glutamine): 54.7 mM | Produced peptide ([2]; Table 15-2, carboxy component 100 mM, L-Gln 150 mM): 61.1 mM
SMILES: NCC(=O)N[C@@H](CCC(N)=O)C(=O)O [Gly-L-Gln] (H-Gly-Gln-OH)

Produced peptide [1, 3]: 5.4 mM | Produced peptide [2, 4]: 3.3 mM
SMILES: C[C@H](N)C(=O)N[C@H](CO)C(=O)O [L-Ala-D-Ser] (H-Ala-[dS]-OH)

Produced peptide [1, 9]: 13.7 mM | Produced peptide [2, 4]: 11.1 mM
SMILES: C[C@H](N)C(=O)NCC(=O)O [L-Ala-Gly] (H-Ala-Gly-OH)

Produced peptide [1, 8]: 8.3 mM | Produced peptide [2, 7]: 9.2 mM
SMILES: C[C@H](N)C(=O)N[C@@H](C)C(N)=O [L-Ala-L-Ala-NH2] (H-Ala-Ala-NH2)

Produced peptide [1, 9]: 65.5 mM | Produced peptide [2, 4]: 52.3 mM
SMILES: C[C@H](N)C(=O)N[C@@H](CC(N)=O)C(=O)O [L-Ala-L-Asn] (H-Ala-Asn-OH)

Produced peptide [1, 9]: 2.1 mM | Produced peptide [2, 4]: 2.3 mM
SMILES: C[C@H](N)C(=O)N[C@@H](CC(=O)O)C(=O)O [L-Ala-L-Asp] (H-Ala-Asp-OH)

Produced peptide [1, 9]: 42.9 mM | Produced peptide [2, 4]: 39.1 mM
SMILES: C[C@H](N)C(=O)N[C@@H](CCC(=O)O)C(=O)O [L-Ala-L-Glu] (H-Ala-Glu-OH)

Produced peptide [1, 9]: 33.9 mM | Produced peptide [2, 4]: 24.7 mM
SMILES: CC[C@H](C)[C@H](NC(=O)[C@H](C)N)C(=O)O [L-Ala-L-Ile] (H-Ala-Ile-OH)

Produced peptide [1, 9]: 71.8 mM | Produced peptide [2, 4]: 71.2 mM
SMILES: C[C@H](N)C(=O)N[C@@H](CCCCN)C(=O)O [L-Ala-L-Lys] (H-Ala-Lys-OH)

Further lines, the compound ahead of its results:

SMILES: NCC(=O)N[C@@H](CCCN=C(N)N)C(=O)O [Gly-L-Arg] (H-Gly-Arg-OH)
Produced peptide [1, 5]: 25.5 mM | Produced peptide [2, 6]: 17.9 mM

SMILES: NCCCC[C@H](NC(=O)CN)C(=O)O [Gly-L-Lys] (H-Gly-Lys-OH)
Produced peptide [1, 5]: 9.8 mM | Produced peptide [2, 6]: 48.2 mM

SMILES: NCC(=O)N[C@@H](Cc1ccccc1)C(=O)O [Gly-L-Phe] (H-Gly-Phe-OH)
Produced peptide [1, 5]: 44.0 mM | Produced peptide ([1]; oligopeptide production, amount of enzyme 0.1 units): 17.3 mM | Produced peptide [2, 6]: 20.0 mM

SMILES: NCC(=O)N[C@@H](CO)C(=O)O [Gly-L-Ser] (H-Gly-Ser-OH)
Produced peptide [1, 5]: 44.2 mM | Produced peptide [2, 6]: 53.8 mM

SMILES: CNC(=O)CN [Gly-methylamine]
Produced peptide ([1]; amino acid methyl ester 100 mM, methylamine 150 mM): 1.1 mM | Produced peptide [2, 7]: 1.0 mM

SMILES: C[C@H](N)C(=O)NCC(N)=O [L-Ala-Gly-NH2] (H-Ala-Gly-NH2)
Produced peptide [1, 8]: 7.4 mM | Produced peptide [2, 7]: 15.1 mM

SMILES: C[C@H](N)C(=O)N[C@@H](C)C(=O)O [L-Ala-L-Ala] (H-Ala-Ala-OH)
Produced peptide [1, 9]: 25.4 mM | Produced peptide ([1]; L-amino acid ester 100 mM, amino acid or peptide amine component 150 mM): 28.7 mM | Produced peptide [2, 4]: 13.1 mM | Produced peptide ([2]; Table 16, oligopeptide production, carboxy component 100 mM, amine component 150 mM): 25.6 mM
